Assay results from patent US6562115B2, “Azo dyes and their preparation and use” (Ilford Imaging Switzerland GmbH, priority 2000, dated 2003).

Experiment: Dye solubility in deionised water
Format: physicochemical
Conditions: for solubility (in words): assessment of state-of-the-art dyes in the background section
Protocol: An excess of dye was vigorously stirred in deionised water for 1 hour at a temperature of 50° C. The mixture was then cooled down to a temperature of 20° C. and filtered. Dye solubility was determined spectroscopically in the clear filtered solution.

Nc1ccc2cc(S(=O)(=O)[O-])cc(O)c2c1N=Nc1cc(NC(=O)CCC(=O)[O-])ccc1S(=O)(=O)[O-].[Na+].[Na+].[Na+] [Compound 120]
solubility in comparison to the known dye Acid Red 37 (comparison drawn from Table 3): significantly higher

Nc1ccc2cc(S(=O)(=O)[O-])cc(O)c2c1N=Nc1ccc(Nc2nc(NCCS(=O)(=O)[O-])nc(NCCS(=O)(=O)[O-])n2)cc1S(=O)(=O)[O-].[Na+].[Na+].[Na+].[Na+] [II]
solubility (in words): high solubility

Acid Red 37
solubility (in words): not sufficient | Solubility (in g per 100 ml of water) (excess dye stirred in deionised water 1 hour at 50° C., cooled to 20° C., filtered, determined spectroscopically): 5 g per 100 ml of water
